Reference: US8765730B2 (Hoffmann-La Roche Inc, priority 2010, dated 2014)

Molecular target: T1, human GPBAR1 receptor (Homo sapiens, UniProt Q8TDU6)
T1 construct: expressed in transfected cells
T1 sequence (Q8TDU6 1-330): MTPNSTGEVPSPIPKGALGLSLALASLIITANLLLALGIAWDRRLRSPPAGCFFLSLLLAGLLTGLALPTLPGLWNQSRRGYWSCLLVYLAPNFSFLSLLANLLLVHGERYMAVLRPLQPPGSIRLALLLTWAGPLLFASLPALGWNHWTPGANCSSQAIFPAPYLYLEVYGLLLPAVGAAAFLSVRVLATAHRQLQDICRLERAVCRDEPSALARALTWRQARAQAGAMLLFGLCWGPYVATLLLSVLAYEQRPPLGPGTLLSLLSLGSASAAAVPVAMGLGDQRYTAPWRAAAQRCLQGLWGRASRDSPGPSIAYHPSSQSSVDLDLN
Assay: functional cAMP assay in CHO-dhfr(minus) cells expressing human GPBAR1 receptors
Assay type: cell-based
Conditions: functional cAMP assay, 30 min at 30° C., read-out: human EC50
How it was run: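 Agonist cAMP read-out: stable GPBAR1 CHO-dhfr− clone, 30 min compound exposure at 30° C following 30 min IBMX (1 mM) preincubation in Krebs Ringer bicarbonate. Time-resolved energy-transfer detection gives EC50; parental CHO cells serve as counter-screen.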

Row | EC50 [nM] | Compound
1 | 10 | Cc1ccccc1[C@H](C/C(=N\O)c1cc(Br)c(=O)n(C)c1)c1ccc(Br)cc1 [Example 252, 3-Bromo-5-{(R)-3-(4-bromo-phenyl)-1-[(E)-hydroxyimino]-3-o-tolyl-propyl}-1-methyl-1H-pyridin-2-one]

Same assay, conditions: human EC50, functional cAMP assay, 30 min at 30° C.

Row | EC50 [nM] | Compound
2 | 400 | Cc1ccccc1C(CC(=NO)c1ccncc1)c1cccc(-c2ccc(S(C)(=O)=O)cc2)c1 (racemic) [Example 29, 3-(4′-Methanesulfonyl-biphenyl-3-yl)-1-pyridin-4-yl-3-o-tolyl-propan-1-one oxime]
3 | 38 | Cc1cc(Cl)ccc1C(C/C(=N\O)c1ccc(=O)n(C)c1)c1ccc(S(C)(=O)=O)cc1 (stereo not drawn) [Example 331, (E)-5-(3-(4-chloro-2-methylphenyl)-1-(hydroxyimino)-3-(4-(methylsulfonyl)phenyl)propyl)-1-methylpyridin-2(1H)-one]
4 | 24 | Cn1cc(/C(CC(c2ccc(Br)cc2)c2ccc(Cl)cc2F)=N/O)ccc1=O (single isomer, unassigned; (+)) [Example 239, (+)-5-{3-(4-Bromo-phenyl)-3-(4-chloro-2-fluoro-phenyl)-1-[(E)-hydroxyimino]-propyl}-1-methyl-1H-pyridin-2-one]
5 | 1310 | Cc1ccccc1C(C/C(=N\O)c1ccc(=O)n(C)c1)c1ccc(C(=O)NCCCC(=O)O)cc1 (stereo not drawn) [Example 213, 4-{4-[3-[(E)-Hydroxyimino]-3-(1-methyl-6-oxo-1,6-dihydro-pyridin-3-yl)-1-o-tolyl-propyl]-benzoylamino}-butyric acid]
6 | 465 | Cc1cc(/C(CC(c2ccc(C(=O)O)cc2)c2ccc(F)cc2F)=N/O)ccn1 (stereo not drawn) [Example 431, 4-[1-(2,4-Difluoro-phenyl)-3-[(E)-hydroxyimino]-3-(2-methyl-pyridin-4-yl)-propyl]-benzoic acid]
7 | 218 | COC(=O)c1ccc(-c2ccc(C(CC(=NO)c3ccnc(C)c3)c3ccccc3C)cc2)cc1 (mixture of isomers) [Example 74, 4′-[3-[Hydroxyimino]-3-(2-methyl-pyridin-4-yl)-1-o-tolyl-propyl]-biphenyl-4-carboxylic acid methyl ester]
8 | 14 | Cc1ccccc1C(CC(=NO)c1ccncc1)c1ccc(-c2cncnc2)cc1 (racemic) [Example 34, 1-Pyridin-4-yl-3-(4-pyrimidin-5-yl-phenyl)-3-o-tolyl-propan-1-one oxime]
9 | 302 | Cc1cc(Cl)ccc1[C@@H](C/C(=N\O)c1ccc(=O)n(C)c1)c1ccc(-c2ccc(C(=O)O)cc2)cc1 (single isomer, unassigned) [Example 394, (−)-4′-[1-(4-Chloro-2-methyl-phenyl)-3-[(E)-hydroxyimino]-3-(1-methyl-6-oxo-1,6-dihydro-pyridin-3-yl)-propyl]-biphenyl-4-carboxylic acid; compound with triethylamine 1:0.85]
10 | 27 | Cc1cc(/C(CC(c2ccc(Br)cc2)c2cc(F)cc(F)c2)=N/O)ccn1 (stereo not drawn) [Example 445, 3-(4-Bromo-phenyl)-3-(3,5-difluoro-phenyl)-1-(2-methyl-pyridin-4-yl)-propan-1-one oxime]
11 | 116 | Cc1ccccc1C(C/C(=N\O)c1ccc(=O)n(C)c1)c1ccc(C(=O)NC[C@@H](O)CO)cc1 (stereo partly drawn) [Example 307, N—((R)-2,3-Dihydroxypropyl)-4-((E)-3-(hydroxyimino)-3-(1-methyl-6-oxo-1,6-dihydro-pyridin-3-yl)-1-o-tolylpropyl)benzamide]
12 | 550 | CCn1cc(/C(CC(c2ccc(Br)cc2)c2ccccc2C)=N\O)ccc1=O (stereo not drawn) [Example 165, 5-{3-(4-Bromo-phenyl)-1-[(Z)-hydroxyimino]-3-o-tolyl-propyl}-1-ethyl-1H-pyridin-2-one]
13 | 169 | Cc1cc(/C(C[C@H](c2ccc(Br)cc2)c2ccc(Cl)cc2C)=N/O)ccn1 [Example 386, (R,E)-3-(4-bromophenyl)-3-(4-chloro-2-methylphenyl)-1-(2-methylpyridin-4-yl)propan-1-one oxime]
14 | 104 | Cc1cc(Cl)ccc1C(C/C(=N\O)c1ccc(=O)n(C)c1)c1ccc(Oc2cccc(C(=O)O)c2)c(F)c1 (stereo not drawn) [Example 325, 3-{4-[1-(4-Chloro-2-methyl-phenyl)-3-[(E)-hydroxyimino]-3-(1-methyl-6-oxo-1,6-dihydro-pyridin-3-yl)-propyl]-2-fluoro-phenoxy}-benzoic acid]
15 | 48 | Cc1ccccc1[C@H](C/C(=N\O)c1ccc(=O)n(C)c1)c1ccc(C2CCN(S(N)(=O)=O)CC2)cc1 [Example 510, (R,E)-4-(4-(3-(Hydroxyimino)-3-(1-methyl-6-oxo-1,6-dihydropyridin-3-yl)-1-o-tolylpropyl)phenyl)piperidine-1-sulfonamide]
16 | 8 | Cc1cc(/C(C[C@H](c2ccc(-c3nnc(C)o3)cc2)c2ccccc2C)=N/O)ccn1 [Example 417, ((−), E)-3-[4-(5-Methyl-[1,3,4]oxadiazol-2-yl)-phenyl]-1-(2-methyl-pyridin-4-yl)-3-o-tolyl-propan-1-one oxime]
17 | 303 | CNS(=O)(=O)c1ccc(-c2ccc(C(C/C(=N\O)c3ccncc3)c3ccccc3)cc2)cc1 (stereo not drawn) [Example 21, 4′-{3-[(E)-Hydroxyimino]-1-phenyl-3-pyridin-4-yl-propyl}-biphenyl-4-sulfonic acid methylamide]
18 | 137 | COCCNC(=O)c1ccc(C(C/C(=N\O)c2ccc(=O)n(C)c2)c2ccccc2Cl)cc1F (stereo not drawn) [Example 232, (E)-4-(1-(2-Chlorophenyl)-3-(hydroxyimino)-3-(1-methyl-6-oxo-1,6-dihydropyridin-3-yl)propyl)-2-fluoro-N-(2-methoxyethyl)benzamide]
19 | 700 | Cn1cc(/C(CC(c2ccc(C(=O)N[C@H]3CC[C@H](O)CC3)c(F)c2)c2ccccc2Cl)=N/O)ccc1=O (stereo partly drawn) [Example 217, Trans-4-[1-(2-Chloro-phenyl)-3-[(E)-hydroxyimino]-3-(1-methyl-6-oxo-1,6-dihydro-pyridin-3-yl)-propyl]-2-fluoro-N-(4-hydroxy-cyclohexyl)-benzamide]
20 | 60 | Cc1cc(Cl)ccc1C(C/C(=N\O)c1ccc(=O)n(C)c1)c1ccc(S(N)(=O)=O)cc1 (stereo not drawn) [Example 338, (E)-4-(1-(4-chloro-2-methylphenyl)-3-(hydroxyimino)-3-(1-methyl-6-oxo-1,6-dihydropyridin-3-yl)propyl)benzenesulfonamide]
21 | 67 | Cc1ccccc1C(C/C(=N\O)c1ccncc1)c1ccc(-c2cncnc2)cc1 (single isomer, unassigned; (+)) [Example 35, (+)-(E)-1-Pyridin-4-yl-3-(4-pyrimidin-5-yl-phenyl)-3-o-tolyl-propan-1-one oxime]
22 | 592 | Cc1ccccc1C(C/C(=N\O)c1ccc(=O)n(C)c1)c1ccc(C(=O)NC2(CO)CC2)cc1 (stereo not drawn) [Example 308, (E)-4-(3-(Hydroxyimino)-3-(1-methyl-6-oxo-1,6-dihydropyridin-3-yl)-1-o-tolylpropyl)-N-(1-(hydroxymethyl)cyclopropyl)benzamide]
23 | 467 | Cc1cc(/C(CC(c2ccc(Br)cc2)c2ccc(Cl)cc2F)=N/O)ccn1 (stereo not drawn) [Example 147, (E)-3-(4-Bromo-phenyl)-3-(4-chloro-2-fluoro-phenyl)-1-(2-methyl-pyridin-4-yl)-propan-1-one oxime]
24 | 2410 | CCOC(=O)C(C(=O)OCC)c1ccc([C@H](C/C(=N\O)c2ccnc(C)c2)c2ccccc2C)cc1 [Example 286, 2-{4-[(S)-3-[(E)-Hydroxyimino]-3-(2-methyl-pyridin-4-yl)-1-o-tolyl-propyl]-phenyl}-malonic acid diethyl ester]
25 | 151 | CC(/C(=N\O)c1ccncc1)C(c1ccccc1)c1ccccc1 (stereo not drawn) [Example 153, (E)-2-Methyl-3,3-diphenyl-1-pyridin-4-yl-propan-1-one oxime]
26 | 323 | Cc1cc(C(CC(c2cccc(-c3cccc(C(=O)O)c3)c2)c2ccccc2C)=NO)ccn1 (racemic) [Example 102, 3′-[3-[Hydroxyimino]-3-(2-methyl-pyridin-4-yl)-1-o-tolyl-propyl]-biphenyl-3-carboxylic acid]
27 | 380 | Cn1cc(/C(CC(c2ccc(C(=O)NCC(F)(F)F)c(F)c2)c2ccccc2Cl)=N/O)ccc1=O (stereo not drawn) [Example 234, (E)-4-(1-(2-Chlorophenyl)-3-(hydroxyimino)-3-(1-methyl-6-oxo-1,6-dihydropyridin-3-yl)propyl)-2-fluoro-N-(2,2,2-trifluoroethyl)benzamide]
28 | 18 | Cc1cc(Cl)ccc1[C@H](C/C(=N\O)c1ccc(=O)n(C)c1)c1ccc(-c2ccc(S(N)(=O)=O)cc2)cc1 (single isomer, unassigned) [Example 413, (−)-4′-[1-(4-Chloro-2-methyl-phenyl)-3-[(E)-hydroxyimino]-3-(1-methyl-6-oxo-1,6-dihydro-pyridin-3-yl)-propyl]-biphenyl-4-sulfonic acid amide]
29 | 10 | Cc1cc(Cl)ccc1C(C/C(=N\O)c1ccc(=O)n(C)c1)c1ccc(-c2ccc(C(=O)NCC(=O)O)cc2)cc1 (single isomer, unassigned; (+)) [Example 256, (+)-({4′-[1-(4-Chloro-2-methyl-phenyl)-3-[(E)-hydroxyimino]-3-(1-methyl-6-oxo-1,6-dihydro-pyridin-3-yl)-propyl]-biphenyl-4-carbonyl}-amino)-acetic acid]
30 | 50 | Cc1cc(F)ccc1C(C/C(=N\O)c1ccc(=O)n(C)c1)c1ccc(-c2ccc(N)cc2)cc1 (stereo not drawn) [Example 259, 5-{3-(4′-Amino-biphenyl-4-yl)-3-(4-fluoro-2-methyl-phenyl)-1-[(E)-hydroxyimino]-propyl}-1-methyl-1H-pyridin-2-one]
